{"source": "ChEMBL document CHEMBL1155247", "about": "“SAR and biological evaluation of SEN12333/WAY-317538: Novel alpha 7 nicotinic acetylcholine receptor agonist” (Bioorg Med Chem, 2009)", "target": "Neuronal acetylcholine receptor subunit alpha-7 (Rattus norvegicus) (UniProt Q05941)", "test": "Selectivity for rat alpha7 nAChR over human alpha3 nAChR", "data": [{"smiles": "Cl.O=C(CCCCN1CCOCC1)Nc1ccc(-c2cccnc2)cc1", "values": [{"measurement": "Selectivity ratio", "value": 5.3}]}]}
